Measured values from publication PMC8587785, “A New Class of Uracil–DNA Glycosylase Inhibitors Active against Human and Vaccinia Virus Enzyme” (Molecules, 2021).
“Also recorded” adds a separate entry of the source. Where two headings read alike, the source gives them in different places.

Legend:
[1] = tested on: HEK 293FT cells; assay: Cell toxicity assay (MTT); type: cell-based, human; conditions: for EC50: Homo sapiens, HEK293FT, 72 h, read-out: effective concentration (toxicity)
Text: To assess the toxicity of UNG inhibitors for human cells, we have treated HEK293 cell line with the compounds 4B and 4F as the best inhibitors (Table 1). […] Since Ura preferentially accumulates in DNA from a dUTP pool, we have next tested the toxicity of these UNG inhibitors in the presence of MTX, which is an antimetabolite drug that inhibits dihydrofolate reductase, reduces the availability of tetrahydrofolate, and thus suppresses the conversion of […].
Figure 4 Cytotoxicity of UNG inhibitors. (a) Survival of HEK 293FT cells in the presence of the UNG inhibitors 4B and 4F (0.8–500 μM); (b) survival of HEK 293FT cells in the presence of MTX alone (0.02–10 μM) or 100 μM 4B plus MTX (0.1–10 μM); (c) survival of HEK 293FT cells in the presence of the UNG inhibitors 4B and 4F (0.8–500 μM) plus 0.1 μM MTX. In Panel C, the survival in the presence of 0.1 μM MTX alone is taken for 100%. Mean ± s. e. m. is shown (n = 3).
Human embryonic kidney cells (HEK 293FT) were from Thermo Fisher Scientific (Waltham, MA, USA; Cat. #R70007). The laboratory stock was regularly checked for the absence of mycoplasma contamination by PCR. Cells were grown in T25 cm^2 flasks in the complete medium (Dulbecco’s modified Eagle’s medium supplemented with 10% fetal bovine serum, 1 mM sodium pyruvate, 2 mM L-glutamine, and 1% penicillin–streptomycin–amphotericin B) as adherent monolayer cultures. The cultures were maintained at 37 °C in humidified atmosphere with 5% CO2. Cytotoxicity was determined by the colorimetric MTT (3-(4,5-dimethyl-2-thiazolyl)-2,5-diphenyl-2H-tetrazolium bromide) assay. The cells were harvested by trypsinization, seeded in the complete medium (100 μL per well) into 96-well plates at the density of 1.4×10^4 cells per well, and incubated for 24 h to settle and resume proliferation. MTX was dissolved in 1 M NaOH to 22 mM. […] After 15 min at room temperature to solubilize the formed formazan, A570 and A620 were measured with a Multiskan EX microplate reader (Thermo Fisher Scientific, Waltham, MA, USA). […]

[2] = tested on: 947 human cell lines; conditions: read-out: median EC50; cited from earlier work
[3] = target: T1, hUNG (Homo sapiens, UniProt P13051); assay: Uracil–DNA glycosylase assay, biochemical screening against hUNG (cleavage of 32P-labeled ssDNA 20-mer with dU); conditions: for hUNG inhibition, dose response: inhibitors at 10, 100 and 1000 μM; for IC50: conditions used for screening: 50 nM substrate, 20 pM enzyme, 10 min, 37 °C
T1 construct: truncated catalytically active human uracil–DNA glycosylase (hUNG ΔN84); His6 (N); linker with thrombin cleavage site (pET-15b) (N); made in house; host or cells: E. coli BL21(DE3), pET-15b
Method: As hUNG excises Ura from single- and double-stranded DNA with similar efficiency, we have used the cleavage of a 20-mer single-stranded DNA oligonucleotide containing a dU residue in position 8 (Section 4.1) to assay hUNG activity in the presence of inhibitors. Twenty-three identified compounds were tested at 10, 100, and 1000 μM (Figure 2a). […] However, even the best inhibitor, 4B, had IC50 between 100 and 1000 μM under the conditions used for screening.
Figure 2 Biochemical screening of the inhibitors identified by molecular docking. (a) hUNG activity in the presence of the inhibitors at 10 μM (black bars), 100 μM (light gray bars), or 1000 μM (dark gray bars). The activity is normalized for that in the absence of the inhibitor. Means and SD of three independent experiments are shown; (b) Structures of the compounds 2D, 3A, 3B, 4B, 4E, 4F, and 4G.
The identified compounds were purchased from Vitas-M Laboratory (Vitas-M Laboratory, Ltd., Hong Kong, China). The reaction mixture (10 μL) included 25 mM sodium phosphate (pH 7.5), 1 mM dithiothreitol, 1 mM Na-EDTA, 50 nM ^32P-labeled substrate, 20 pM enzyme, and the inhibitors at 10, 100, and 1000 μM. The reaction was carried out for 10 min at 37 °C, terminated by adding NaOH to 100 mM and heating for 2 min at 95 °C, and neutralized by an equimolar amount of HCl. The mixture was supplemented with 5 μL of formamide dye (80% formamide, 20 mM Na-EDTA, 0.1% xylene cyanol, 0.1% bromophenol blue), and the reaction products were separated by gel electrophoresis in 20% polyacrylamide/7.2 M urea. The gels were visualized and quantified by phosphorimaging using the Typhoon FLA 9500 system (GE Healthcare, Chicago, IL, USA).

[4] = target: T2, vaccinia virus UNG (vvUNG, D4 protein) (Vaccinia virus, UniProt P20536); type: biochemical; conditions: at 100 μM
T2 construct: made in house

[5] = target: T1, hUNG; assay: Inhibition mechanism determination, steady-state kinetics of substrate cleavage by hUNG; type: biochemical; conditions: for θ rel (Akaike’s relative likelihood of the model): best model’s likelihood taken for 1; for Vmax: fit in the presence of the inhibitor; for mode of inhibition: fit to competitive, uncompetitive and mixed models
Method: KM and Vmax parameters of the Michaelis–Menten scheme were determined at different inhibitor concentrations, and the results were analyzed by fitting to competitive, uncompetitive, and mixed inhibition models (Figure 3, Table 1). Akaike’s information criterion was used to compare the quality of fit under the models. […] The kinetic values reported for ssDNA cleavage by hUNG in the literature vary widely (0.22–13.8 μM for KM, 647–1060 min^−1 for kcat) yet generally agree with our data.
The reactions were performed as described above except that the substrate concentrations were 0.1, 0.3, 0.5, 0.7, 1, 3, 5, 7, and 10 μM, and the inhibitors concentrations were 0, 100, 300, 500, and 1000 μM. […] To determine the type of inhibition and calculate Ki, the data were fit to the competitive, uncompetitive, and mixed inhibition models using an R script.

[6] = tested on: E. coli UNG; conditions: cited from earlier work
[7] = target: T1, hUNG; conditions: open (not DNA-bound) conformation; cited from earlier work
[8] = competitive model, read-out: Ki
[9] = uncompetitive model, read-out: Ki

Compound	hUNG inhibition, dose response [3]	suppression of vvUNG activity [4]	θ rel (Akaike’s relative likelihood of the model) ([5]; competitive model)	Vmax ([5]; competitive model) [µM/min]	mode of inhibition [5]	θ rel (Akaike’s relative likelihood of the model) ([5]; uncompetitive model)	Vmax ([5]; uncompetitive model) [µM/min]	other results
CN(Cc1cnc2nc(N)nc(N)c2n1)c1ccc(C(=O)N[C@@H](CCC(=O)O)C(=O)O)cc1 [MTX, methotrexate, reference compound]								reduction in the cell viability ([1]; 0.1 μM MTX without the inhibitors): 20–25%; EC50 [2]: 0.595 µM
Cc1ccc(C=C2C(=O)NC(=O)NC2=O)o1 [2D]	progressively lower substrate cleavage with the increasing inhibitor concentration	≈ 50%						
CN(C)c1ccc(C=C2C(=O)NC(=O)NC2=O)cc1 [3A]	progressively lower substrate cleavage with the increasing inhibitor concentration; also recorded: weak dose response	≈ 50%	0.655	0.029 ± 0.003	the uncompetitive model was marginally better	best model	0.034 ± 0.004	Ki ([5]; Ki, competitive model): 530 ± 270 µM; Ki ([5]; Ki, uncompetitive model): 1300 ± 500 µM
CNC(C)C1CCC(N)C(OC2C(N)CC(N)C(OC3OCC(C)(O)C(NC)C3O)C2O)O1 (centres unmarked) [gentamicin]								IC50 [6]: ~1000 µM
O=C1NC(=O)C(=Cc2ccco2)C(=O)N1 [3B]		≈ 50%						
Cc1ccc(C#N)c(SCc2cc(=O)[nH]c(=O)[nH]2)n1 [4E]	progressively lower substrate cleavage with the increasing inhibitor concentration							
COc1ccc(C=C2C(=O)NC(=O)NC2=O)c(OC)c1 [4B]	progressively lower substrate cleavage with the increasing inhibitor concentration; also recorded: more pronounced dose response	≈ 50%	best model	0.019 ± 0.001	clearly better described by the competitive inhibition model	2.53 × 10^−5	0.024 ± 0.003	IC50 [3]: submillimolar range; IC50 ([3]; read-out: IC50): 100 to 1000 µM; Ki [5, 8]: 140 ± 40 µM; Ki [5, 9]: 550 ± 140 µM; EC50 [1]: 69 ± 1 µM
COc1cc(C=C2C(=O)NC(=O)NC2=O)cc(Cl)c1OC [4F]	progressively lower substrate cleavage with the increasing inhibitor concentration; also recorded: more pronounced dose response		0.8	0.053 ± 0.014	the uncompetitive model was marginally better	best model	0.075 ± 0.028	IC50 [3]: submillimolar range; Ki [5, 8]: 200 ± 130 µM; Ki [5, 9]: 250 ± 140 µM; EC50 [1]: 77 ± 1 µM
O=C(O)C1=CC(=C(c2ccc(O)c(C(=O)O)c2)c2ccc(O)c(C(=O)O)c2)C=CC1=O [aurintricarboxylic acid]								affinity [7]: submicromolar affinity
CC(Oc1ccc(C=C2C(=O)NC(=O)NC2=O)cc1)C(=O)O (centres unmarked) [4G]	progressively lower substrate cleavage with the increasing inhibitor concentration; also recorded: more pronounced dose response		best model	0.042 ± 0.002	clearly better described by the competitive inhibition model	0.312	0.043 ± 0.003	Ki ([5]; Ki, competitive model): 3300 ± 2300 µM; Ki ([5]; Ki, uncompetitive model): > 10000 µM
